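These data come from cells grown in 96-well plates and exposed to compound for 48 hours at five concentrations. GI50: concentration for 50% inhibition of growth.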 Calls of active or inactive are those of the source. Rule as the data show it: active = GI50 up to about 1.1 µM and inactive = higher.
Experiments:
Test in all cases: NCI anticancer screen, dose series, 48 h
786-0 = test system: 786-0
A498 = test system: A498
ACHN = test system: ACHN
BT-549 = test system: BT-549
CAKI-1 = test system: CAKI-1
CCRF-CEM = test system: CCRF-CEM
COLO 205 = test system: COLO 205
DLD-1 = test system: DLD-1
DMS-114 = test system: DMS-114
DMS-273 = test system: DMS-273
DU-145 = test system: DU-145
EKVX = test system: EKVX
HCC 2998 = test system: HCC 2998
HCT-116 = test system: HCT-116
HCT-15 = test system: HCT-15
HL-60 = test system: HL-60
HOP-18 = test system: HOP-18
HOP-62 = test system: HOP-62
HOP-92 = test system: HOP-92
HT-29 = test system: HT-29
Hs-578T = test system: Hs-578T
IGROV-1 = test system: IGROV-1
K562 = test system: K562
KM-20L2 = test system: KM-20L2
KM12 = test system: KM12
LOX IMVI = test system: LOX IMVI
M14 = test system: M14
M19-MEL = test system: M19-MEL
MCF7 = test system: MCF7
MDA-MB-231 = test system: MDA-MB-231
MDA-MB-435 = test system: MDA-MB-435
MDA-N = test system: MDA-N
MOLT-4 = test system: MOLT-4
Malme-3M = test system: Malme-3M
NCI-H23 = test system: NCI-H23
NCI-H522 = test system: NCI-H522
NCI/ADR-RES = test system: NCI/ADR-RES
OVCAR-3 = test system: OVCAR-3
OVCAR-4 = test system: OVCAR-4
OVCAR-5 = test system: OVCAR-5
OVCAR-8 = test system: OVCAR-8
PC-3 = test system: PC-3
RPMI-8226 = test system: RPMI-8226
RXF 393 = test system: RXF 393
SF-268 = test system: SF-268
SF-295 = test system: SF-295
SF-539 = test system: SF-539
SK-MEL-28 = test system: SK-MEL-28
SK-MEL-2 = test system: SK-MEL-2
SK-MEL-5 = test system: SK-MEL-5
SK-OV-3 = test system: SK-OV-3
SN12C = test system: SN12C
SNB-75 = test system: SNB-75
SNB-78 = test system: SNB-78
SW-620 = test system: SW-620
T47D = test system: T47D
TK-10 = test system: TK-10
U-251 = test system: U-251
UACC-257 = test system: UACC-257
UACC-62 = test system: UACC-62
UO-31 = test system: UO-31
XF498 = test system: XF498
A549 = test system: A549
LXFL 529 = test system: LXFL 529
NCI-H226 = test system: NCI-H226
NCI-H460 = test system: NCI-H460
SNB-19 = test system: SNB-19
SR = test system: SR

With `CC(=O)O[C@H]1C(=O)O[C@@H]2C[C@H]3C(C)=CC(=O)[C@@H](O)[C@]3(C)[C@H]3[C@@]4(O)OC[C@]32[C@@H]1[C@@H](C)[C@H]4O` the GI50 (786-0) was 0.0238 µM (active), the GI50 (A498) was 103 nM (active) and the GI50 (ACHN) was 0.0317 µM (active). For the same compound, the GI50 (BT-549) was 31.2 nM (active), the GI50 (CAKI-1) was 0.265 µM (active) and the GI50 (CCRF-CEM) was 0.0328 µM (active). The GI50 (COLO 205) was 0.188 µM (active), the GI50 (DLD-1) was 0.03 µM (active) and the GI50 (DMS-114) was 0.0253 µM (active). For the same compound, the GI50 (DMS-273) was 0.0264 µM (active), the GI50 (DU-145) was 32.1 nM (active) and the GI50 (EKVX) was 45.3 nM (active). For the same compound, the GI50 (HCC 2998) was 50.5 nM (active), the GI50 (HCT-116) was 0.0234 µM (active) and the GI50 (HCT-15) was 0.0759 µM. The GI50 (HL-60) was 0.0229 µM (active), the GI50 (HOP-18) was 0.177 µM (active) and the GI50 (HOP-62) was 0.0498 µM (active). For the same compound, the GI50 (HOP-92) was 0.0329 µM (active), the GI50 (HT-29) was 0.0518 µM (active) and the GI50 (Hs-578T) was 17.5 nM (active). For the same compound, the GI50 (IGROV-1) was 0.0279 µM (active), the GI50 (K562) was 0.0266 µM (active) and the GI50 (KM-20L2) was 0.0977 µM (active). For the same compound, the GI50 (KM12) was 0.0318 µM (active), the GI50 (LOX IMVI) was 0.0321 µM (active) and the GI50 (M14) was 0.0219 µM (active). For the same compound, the GI50 (M19-MEL) was 0.0272 µM (active), the GI50 (MCF7) was 29.4 nM (active) and the GI50 (MDA-MB-231) was 47.5 nM (active). The GI50 (MDA-MB-435) was 21.4 nM (active), the GI50 (MDA-N) was 21.1 nM (active) and the GI50 (MOLT-4) was 0.022 µM (active). The GI50 (Malme-3M) was 0.0232 µM (active), the GI50 (NCI-H23) was 0.0268 µM (active) and the GI50 (NCI-H522) was 0.0243 µM (active). For the same compound, the GI50 (NCI/ADR-RES) was 2.21 µM (inactive), the GI50 (OVCAR-3) was 0.0266 µM (active) and the GI50 (OVCAR-4) was 0.0577 µM (active). The GI50 (OVCAR-5) was 0.348 µM (active), the GI50 (OVCAR-8) was 0.0444 µM (active) and the GI50 (PC-3) was 20 nM (active). For the same compound, the GI50 (RPMI-8226) was 0.0286 µM (active), the GI50 (RXF 393) was 0.0301 µM (active) and the GI50 (SF-268) was 0.0432 µM (active). For the same compound, the GI50 (SF-295) was 0.0535 µM (active), the GI50 (SF-539) was 0.0246 µM (active) and the GI50 (SK-MEL-28) was 0.0281 µM (active). For the same compound, the GI50 (SK-MEL-2) was 0.0611 µM (active), the GI50 (SK-MEL-5) was 0.0247 µM (active) and the GI50 (SK-OV-3) was 0.524 µM (active). For the same compound, the GI50 (SN12C) was 0.0767 µM (active), the GI50 (SNB-75) was 0.0366 µM (active) and the GI50 (SNB-78) was 51.5 nM (active). The GI50 (SW-620) was 0.0527 µM (active), the GI50 (T47D) was 22.8 nM (active) and the GI50 (TK-10) was < 0.0234 µM (active). The GI50 (U-251) was 0.0285 µM (active), the GI50 (UACC-257) was 0.0395 µM (active) and the GI50 (UACC-62) was 0.0434 µM (active). The GI50 (UO-31) was 0.53 µM (active) and the GI50 (XF498) was 0.031 µM (active).

`CC(C)C1=CC23CCC4C(C)(C(=O)O)CCCC4(C)C2CC1C1C(=O)N(c2ccccc2)C(=O)C13` (stereo unspecified) was tested, and the GI50 (786-0) was 55.2 µM (inactive), the GI50 (A549) was 31.6 µM (inactive) and the GI50 (ACHN) was 28.1 µM (inactive). The GI50 (CAKI-1) was > 100 µM (inactive), the GI50 (CCRF-CEM) was 56.6 µM (inactive) and the GI50 (COLO 205) was 24.3 µM (inactive). For the same compound, the GI50 (DLD-1) was > 100 µM (inactive), the GI50 (DMS-114) was 35.4 µM (inactive) and the GI50 (DMS-273) was 36.1 µM (inactive). The GI50 (HCT-116) was 39.1 µM (inactive), the GI50 (HCT-15) was 30.9 µM and the GI50 (HL-60) was 95.9 µM (inactive). For the same compound, the GI50 (HOP-18) was > 100 µM (inactive), the GI50 (HOP-62) was 51.3 µM (inactive) and the GI50 (HOP-92) was 32.7 µM (inactive). For the same compound, the GI50 (HT-29) was 38.6 µM (inactive), the GI50 (IGROV-1) was 37.2 µM (inactive) and the GI50 (K562) was 69.8 µM (inactive). For the same compound, the GI50 (KM-20L2) was 39.6 µM (inactive), the GI50 (KM12) was 27.9 µM (inactive) and the GI50 (LOX IMVI) was 54.1 µM (inactive). For the same compound, the GI50 (LXFL 529) was 43.9 µM (inactive), the GI50 (M14) was 40.5 µM (inactive) and the GI50 (M19-MEL) was 57.8 µM (inactive). For the same compound, the GI50 (MOLT-4) was > 100 µM (inactive), the GI50 (Malme-3M) was 67.9 µM (inactive) and the GI50 (NCI-H226) was 15.5 µM (inactive). For the same compound, the GI50 (NCI-H23) was > 100 µM (inactive), the GI50 (NCI-H460) was 38.9 µM (inactive) and the GI50 (NCI-H522) was 49.1 µM (inactive). For the same compound, the GI50 (OVCAR-3) was 33.7 µM (inactive), the GI50 (OVCAR-4) was > 100 µM (inactive) and the GI50 (OVCAR-5) was > 100 µM (inactive). For the same compound, the GI50 (OVCAR-8) was 64 µM (inactive), the GI50 (RPMI-8226) was > 100 µM (inactive) and the GI50 (RXF 393) was 27.4 µM (inactive). For the same compound, the GI50 (SF-268) was 41.1 µM (inactive), the GI50 (SF-295) was 51.2 µM (inactive) and the GI50 (SF-539) was 51.3 µM (inactive). For the same compound, the GI50 (SK-MEL-28) was 53.2 µM (inactive), the GI50 (SK-MEL-2) was 20.1 µM (inactive) and the GI50 (SK-MEL-5) was 44.2 µM (inactive). The GI50 (SK-OV-3) was 56.4 µM (inactive), the GI50 (SN12C) was 45.9 µM (inactive) and the GI50 (SNB-19) was 46.9 µM (inactive). For the same compound, the GI50 (SNB-75) was 53.2 µM (inactive), the GI50 (SR) was > 100 µM (inactive) and the GI50 (SW-620) was 54 µM (inactive). The GI50 (TK-10) was 43.5 µM (inactive), the GI50 (U-251) was 36.6 µM (inactive) and the GI50 (UACC-257) was 26.1 µM (inactive). The GI50 (UACC-62) was 38.6 µM (inactive), the GI50 (UO-31) was 43.7 µM (inactive) and the GI50 (XF498) was 35.2 µM (inactive).
